In patent publication US5663165A, “Hypolipidaemic benzothiazepine compounds” (Glaxo Wellcome Inc., priority 1992, dated 1997):

System: sodium-dependent 3H taurocholate uptake in rat distal ileal brush border membrane vesicles
Assay: In vitro inhibition of bile acid uptake
Format: biochemical
Settings: 10 μM 3H taurocholate, 30 seconds at 24° C., active (sodium-dependent) uptake vs control
Protocol: In vitro inhibition of bile acid uptake
Freshly prepared rat distal ileal brush border membrane vesicles (about […] vesicle protein) were incubated for 30 seconds at 24° C. in an incubation mixture comprising 10 μM ^3 H taurocholate, 100 mM NaCl (or KCl) and 80 mM mannitol in 20 mM Hepes Tris pH 7.4. Each test compound was dissolved in ethanol (or water) and then diluted with incubation mixture to an ethanol concentration of not more than 1% v/v. The incubation was terminated by rapid dilution and filtration and the filter washed with an ice-cold isotonic sodium-free buffer.
The uptake of ^3 H taurocholate was measured by the radioactivity remaining on the filter and converted to pmoles/mg vesicle protein. The active, ie sodium-dependent, uptake was obtained by subtracting the passive uptake measured in 100 mM KCl from the total uptake measured in 100 mM NaCl. The active uptake for each test compound was compared with a control active uptake and the results expressed at % inhibition of bile acid uptake.

SMILES: CCCC[C@]1(CC)CS(=O)(=O)c2ccccc2[C@@H](c2ccccc2)N1 [Synthetic Example 1, (-)-(RR)-3-butyl-3-ethyl-2,3,4,5-tetrahydro-5-phenyl-1,4-benzothiazepine-1,1-dioxide]
- % inhibition of bile acid uptake (0.3 μM test compound): 55%
- % inhibition of bile acid uptake (1 μM test compound): 69%
- % inhibition of bile acid uptake (3 μM test compound): 85%
- % inhibition of bile acid uptake (10 μM test compound): 96%
